Laboratory results from US12214017B2, “GLP-1 compositions and uses thereof” (Novo Nordisk A/S, priority 2017, dated 2025).

Test: Assay (III): purity of liraglutide by HPLC (chemical stability)
Type: physicochemical
Conditions: composition without phenol, compared with phenol-containing compositions
Experimental: Assay (III): Determination of Purity of Liraglutide
Determination of purity was performed using high performance liquid chromatography (HPLC) using a Waters XTerra™ MS C18 column with a gradient elution of two mobile phases, where one mobile phase was an aqueous ammonium phosphate buffer (pH 8)/acetonitrile mixture and the other mobile phase was acetonitrile in water. Detection was performed at 215 nm.
The results in Table 5 were obtained as follows: Compositions comprising liraglutide were tested. The tested compositions contained liraglutide (as specified in Table 4), mannitol (36.9 mg/ml), disodium hydrogen phosphate (1.42 mg/ml), and optionally phenol (as specified in Table 4), at pH 7.4 in an aqueous solution. These compositions were prepared as described herein in the section General Methods of Preparation. Chemical stability as expressed by purity was determined by Assay (III) described herein at start of the experiment and after storage at 25° C. or at 37° C.

## CCCCCCCCCCCCCCCC(=O)N[C@@H](CCC(=O)NCCCC[C@H](NC(=O)[C@H](C)NC(=O)[C@H](C)NC(=O)[C@H](CCC(N)=O)NC(=O)CNC(=O)[C@H](CCC(=O)O)NC(=O)[C@H](CC(C)C)NC(=O)[C@H](Cc1ccc(O)cc1)NC(=O)[C@H](CO)NC(=O)[C@H](CO)NC(=O)[C@@H](NC(=O)[C@H](CC(=O)O)NC(=O)[C@H](CO)NC(=O)[C@@H](NC(=O)[C@H](Cc1ccccc1)NC(=O)[C@@H](NC(=O)CNC(=O)[C@H](CCC(=O)O)NC(=O)[C@H](C)NC(=O)[C@@H](N)Cc1cnc[nH]1)[C@@H](C)O)[C@@H](C)O)C(C)C)C(=O)N[C@@H](CCC(=O)O)C(=O)N[C@@H](Cc1ccccc1)C(=O)N[C@H](C(=O)N[C@@H](C)C(=O)N[C@@H](Cc1c[nH]c2ccccc12)C(=O)N[C@@H](CC(C)C)C(=O)N[C@H](C(=O)N[C@@H](CCCNC(=N)N)C(=O)NCC(=O)N[C@@H](CCCNC(=N)N)C(=O)NCC(=O)O)C(C)C)[C@@H](C)CC)C(=O)O [liraglutide]
  Chemical stability of liraglutide (in words): less chemically stable
